Results on one compound are retold here after paper PMC2941991 (ACS chemical biology, 2009).

This assay addresses T1, T877A full-length androgen receptor mutant (Homo sapiens, UniProt P10275, T878A).
T1 sequence (P10275 1-920 T878A): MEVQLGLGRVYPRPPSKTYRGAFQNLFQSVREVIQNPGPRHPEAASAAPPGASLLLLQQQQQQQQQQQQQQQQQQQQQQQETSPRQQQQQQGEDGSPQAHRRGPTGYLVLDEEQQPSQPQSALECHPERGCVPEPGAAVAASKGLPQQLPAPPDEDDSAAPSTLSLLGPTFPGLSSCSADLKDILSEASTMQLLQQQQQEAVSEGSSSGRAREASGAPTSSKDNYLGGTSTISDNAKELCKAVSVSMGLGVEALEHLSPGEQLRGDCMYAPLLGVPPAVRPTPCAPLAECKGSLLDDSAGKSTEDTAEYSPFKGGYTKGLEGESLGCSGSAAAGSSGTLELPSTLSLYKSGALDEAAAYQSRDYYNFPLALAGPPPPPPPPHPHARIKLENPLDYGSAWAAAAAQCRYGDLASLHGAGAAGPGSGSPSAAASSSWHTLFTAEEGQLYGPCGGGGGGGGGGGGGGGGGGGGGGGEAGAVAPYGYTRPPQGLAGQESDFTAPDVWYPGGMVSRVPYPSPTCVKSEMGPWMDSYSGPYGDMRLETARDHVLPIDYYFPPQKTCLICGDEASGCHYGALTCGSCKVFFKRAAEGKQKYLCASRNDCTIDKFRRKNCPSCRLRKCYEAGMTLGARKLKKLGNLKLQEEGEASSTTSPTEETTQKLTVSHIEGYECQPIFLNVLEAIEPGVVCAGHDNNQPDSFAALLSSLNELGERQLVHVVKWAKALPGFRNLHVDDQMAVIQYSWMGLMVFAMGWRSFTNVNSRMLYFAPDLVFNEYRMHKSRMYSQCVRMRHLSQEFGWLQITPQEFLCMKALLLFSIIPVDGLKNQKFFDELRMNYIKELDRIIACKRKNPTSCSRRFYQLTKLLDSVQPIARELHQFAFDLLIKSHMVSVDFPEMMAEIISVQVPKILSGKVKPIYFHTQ
In words: Luciferase reporter gene assay, full-length AR with the LNCaP mutation. Format: cell-based. A general note: In a reporter assay the amount or activity of a reporter protein is the signal.

For the compound `CC(C)(O)C(=O)Nc1ccc([N+](=O)[O-])c(C(F)(F)F)c1` [OH-Flu, 2-hydroxyflutamide], the “Agonist or antagonist action on the AR T877A mutant” value is given as “act as agonists”.
